# Measured values taken from ChEMBL document CHEMBL1201862, “PubChem BioAssay data set” (2004).
# Calls of active or inactive are those of the source.
# How the values were obtained:
# [1] = biological target: T1, Zinc finger protein mex-5 (Caenorhabditis elegans, UniProt Q9XUB2); experiment: potency of MEX-5 RNA-binding blockers – biochemical, C. elegans, fluorescence polarization, dose response (AID 1960)
# T1 sequence (Q9XUB2 whole entry): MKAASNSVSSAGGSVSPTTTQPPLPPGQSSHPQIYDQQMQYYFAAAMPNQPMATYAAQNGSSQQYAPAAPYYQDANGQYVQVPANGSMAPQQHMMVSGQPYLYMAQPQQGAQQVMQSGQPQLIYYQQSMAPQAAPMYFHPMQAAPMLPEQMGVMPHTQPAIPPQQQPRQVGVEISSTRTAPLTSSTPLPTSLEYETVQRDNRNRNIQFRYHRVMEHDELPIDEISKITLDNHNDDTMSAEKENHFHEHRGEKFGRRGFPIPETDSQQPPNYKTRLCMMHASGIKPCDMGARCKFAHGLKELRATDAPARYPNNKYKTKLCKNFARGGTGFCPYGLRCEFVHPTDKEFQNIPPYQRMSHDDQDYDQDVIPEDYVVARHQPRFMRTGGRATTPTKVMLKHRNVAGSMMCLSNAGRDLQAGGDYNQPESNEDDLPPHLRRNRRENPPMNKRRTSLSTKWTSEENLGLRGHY
# [2] = biological target: T2, Polyadenylate-binding protein 1 (Homo sapiens, UniProt P11940); experiment: MLLE binding blockers, Cy5 peptide tracer – biochemical, fluorescence polarization, Cy5-PAM2 peptide, secondary, miRNA deadenylation inhibitor project, dose response (AID 602260); type: functional; details: read-out: IC50_Mean
# T2 sequence (P11940 whole entry, the tested form may be a part): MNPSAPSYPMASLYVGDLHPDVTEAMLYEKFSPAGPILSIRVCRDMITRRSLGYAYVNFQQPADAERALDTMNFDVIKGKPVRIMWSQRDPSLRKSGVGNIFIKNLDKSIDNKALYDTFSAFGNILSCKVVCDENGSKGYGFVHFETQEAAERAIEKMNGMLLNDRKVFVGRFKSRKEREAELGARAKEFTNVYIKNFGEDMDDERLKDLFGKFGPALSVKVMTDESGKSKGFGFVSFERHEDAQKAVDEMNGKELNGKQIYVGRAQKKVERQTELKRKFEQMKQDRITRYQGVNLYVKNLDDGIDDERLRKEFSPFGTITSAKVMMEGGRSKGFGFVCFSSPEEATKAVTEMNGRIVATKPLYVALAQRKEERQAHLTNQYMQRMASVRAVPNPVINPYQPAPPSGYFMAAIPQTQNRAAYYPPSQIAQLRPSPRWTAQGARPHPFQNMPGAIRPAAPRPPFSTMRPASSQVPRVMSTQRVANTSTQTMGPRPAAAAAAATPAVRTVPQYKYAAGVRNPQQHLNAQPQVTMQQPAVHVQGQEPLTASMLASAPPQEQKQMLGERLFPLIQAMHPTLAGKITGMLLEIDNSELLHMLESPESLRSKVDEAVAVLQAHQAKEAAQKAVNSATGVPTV
# [3] = biological target: T3, RNA-binding protein pos-1 (Caenorhabditis elegans, UniProt G5EF15); experiment: disruptors of C. elegans POS-1 RNA interaction – biochemical, fluorescence polarization, dose response (AID 1964);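 note: purified POS-1 fused to maltose binding protein made in E. coli; potency of compounds blocking POS-1 binding to fluorescent RNA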
# T3 sequence (G5EF15 whole entry): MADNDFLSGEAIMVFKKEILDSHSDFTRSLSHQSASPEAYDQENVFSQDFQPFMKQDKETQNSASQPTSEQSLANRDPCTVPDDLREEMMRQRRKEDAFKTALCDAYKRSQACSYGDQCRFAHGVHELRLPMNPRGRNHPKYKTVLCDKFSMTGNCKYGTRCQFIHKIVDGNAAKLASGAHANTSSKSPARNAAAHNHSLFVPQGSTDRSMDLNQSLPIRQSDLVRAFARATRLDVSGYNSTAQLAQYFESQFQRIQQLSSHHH
# [4] = biological target: T2, Polyadenylate-binding protein 1; experiment: MLLE domain peptide-binding blockers, IC50 – biochemical, fluorescence polarization, FITC-PAM2 peptide, dose response (AID 602259); type: functional; details: read-out: IC50_Mean
# [5] = biological target: Genome polyprotein (dengue virus type 2, UniProt P29990); experiment: flavivirus cap methylation enzyme inhibition – biochemical, confirmation dose response, primary screen (AID 588689); type: functional
# Chain of Genome polyprotein (P29990 2492-3391 limits assumed): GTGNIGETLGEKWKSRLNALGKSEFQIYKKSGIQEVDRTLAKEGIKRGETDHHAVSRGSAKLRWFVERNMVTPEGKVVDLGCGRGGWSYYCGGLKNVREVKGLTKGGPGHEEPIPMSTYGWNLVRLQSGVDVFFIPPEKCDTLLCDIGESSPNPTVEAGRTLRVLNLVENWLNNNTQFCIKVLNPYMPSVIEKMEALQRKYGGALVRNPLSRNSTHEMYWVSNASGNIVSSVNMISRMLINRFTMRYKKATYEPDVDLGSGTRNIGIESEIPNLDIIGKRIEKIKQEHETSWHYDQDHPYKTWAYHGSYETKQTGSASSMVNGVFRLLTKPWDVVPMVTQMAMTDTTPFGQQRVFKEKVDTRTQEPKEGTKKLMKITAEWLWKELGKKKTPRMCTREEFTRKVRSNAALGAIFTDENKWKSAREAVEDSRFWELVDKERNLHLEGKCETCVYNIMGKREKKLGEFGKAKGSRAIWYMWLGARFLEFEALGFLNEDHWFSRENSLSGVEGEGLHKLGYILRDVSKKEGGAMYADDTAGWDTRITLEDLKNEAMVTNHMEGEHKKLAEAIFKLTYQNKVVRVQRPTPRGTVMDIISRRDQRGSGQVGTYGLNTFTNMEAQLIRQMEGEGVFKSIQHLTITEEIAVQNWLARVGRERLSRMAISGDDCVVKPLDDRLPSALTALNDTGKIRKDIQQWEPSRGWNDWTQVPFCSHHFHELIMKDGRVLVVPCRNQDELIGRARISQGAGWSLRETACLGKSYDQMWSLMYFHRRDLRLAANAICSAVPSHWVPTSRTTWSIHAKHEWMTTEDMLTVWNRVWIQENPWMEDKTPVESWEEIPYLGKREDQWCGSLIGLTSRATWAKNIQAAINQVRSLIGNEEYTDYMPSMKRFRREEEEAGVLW
# [6] = biological target: FAD-linked sulfhydryl oxidase ALR (Homo sapiens, UniProt P55789); experiment: ALR-catalysed DTT oxidation blockers – biochemical, H2O2 detection, luminescence, cherry-pick, dose response (AID 493248)
# Chain of FAD-linked sulfhydryl oxidase ALR (P55789 whole entry): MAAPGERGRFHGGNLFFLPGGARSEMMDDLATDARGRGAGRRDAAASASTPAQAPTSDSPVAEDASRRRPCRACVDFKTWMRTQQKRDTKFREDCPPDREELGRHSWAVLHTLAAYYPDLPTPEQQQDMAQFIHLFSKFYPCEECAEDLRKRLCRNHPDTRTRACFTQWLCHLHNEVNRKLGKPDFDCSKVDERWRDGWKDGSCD
# [7] = biological target: Cytochrome P450 3A4 (Homo sapiens, UniProt P08684);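 note: CYP3A4 tested as one member of a cytochrome P450 panel screen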
# Chain of Cytochrome P450 3A4 (P08684 whole entry): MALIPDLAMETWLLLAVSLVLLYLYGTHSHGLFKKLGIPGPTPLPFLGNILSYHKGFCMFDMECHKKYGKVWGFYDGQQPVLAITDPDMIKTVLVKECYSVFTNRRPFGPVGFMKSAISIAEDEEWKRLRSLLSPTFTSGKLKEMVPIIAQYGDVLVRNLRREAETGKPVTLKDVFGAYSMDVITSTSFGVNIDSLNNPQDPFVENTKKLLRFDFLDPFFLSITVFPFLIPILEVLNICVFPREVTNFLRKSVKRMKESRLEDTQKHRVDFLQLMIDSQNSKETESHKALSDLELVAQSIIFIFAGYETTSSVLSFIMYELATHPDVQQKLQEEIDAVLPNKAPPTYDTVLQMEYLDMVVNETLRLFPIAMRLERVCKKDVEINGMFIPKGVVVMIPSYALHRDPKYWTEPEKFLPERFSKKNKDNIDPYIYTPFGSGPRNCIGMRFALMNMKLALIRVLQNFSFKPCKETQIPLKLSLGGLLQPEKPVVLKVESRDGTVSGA
# [8] = biological target: Cytochrome P450 2C9 (Homo sapiens, UniProt P11712)
# Chain of Cytochrome P450 2C9 (P11712 whole entry): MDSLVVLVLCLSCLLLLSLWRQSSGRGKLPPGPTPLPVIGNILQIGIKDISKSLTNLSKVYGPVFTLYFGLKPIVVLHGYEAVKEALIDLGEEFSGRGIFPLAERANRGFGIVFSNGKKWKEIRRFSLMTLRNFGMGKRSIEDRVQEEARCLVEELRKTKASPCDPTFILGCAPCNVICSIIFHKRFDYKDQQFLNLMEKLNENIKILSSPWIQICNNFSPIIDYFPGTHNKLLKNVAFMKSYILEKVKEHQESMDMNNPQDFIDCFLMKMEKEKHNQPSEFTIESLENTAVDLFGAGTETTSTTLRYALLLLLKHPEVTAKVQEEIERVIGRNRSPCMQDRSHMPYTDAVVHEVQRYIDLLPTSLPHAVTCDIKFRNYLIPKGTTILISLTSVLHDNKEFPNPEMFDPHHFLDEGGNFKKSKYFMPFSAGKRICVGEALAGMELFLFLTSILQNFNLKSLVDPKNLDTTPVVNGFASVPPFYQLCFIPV
# [9] = non-specific 3'UTR reporter inhibition in Clone20-Shn3RL – cell-based, Renilla luciferase, cherry-picked, counter-screen for Shn3 inhibitor project, dose response (AID 624133); type: functional
# [10] = NIH3T3 cell viability loss – ATP luminescence, mouse fibroblasts, counter-screen, dose response (AID 2010); type: functional, cell-based;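 note: cells exposed to compound for about 90 hours before reading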
# [11] = DRD fibroblast viability loss – cell-based, non-viral oncogenic, luminescence, dose response (AID 1934); type: functional; details: Homo sapiens
# [12] = Trypanosoma cruzi growth suppression in host cells – NIH3T3 host cells, beta-gal luminescence, confirmation (AID 2044); type: functional, cell-based;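 note: intracellular parasites grown in NIH/3T3 mouse fibroblasts as host cells; luminescent beta-galactosidase reporter signal from transgenic T. cruzi replicating inside host cells; inhibitors lower the luminescence signal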
# [13] = biological target: T4, Streptokinase A (Streptococcus pyogenes serotype M1, UniProt P10520); experiment: viability-normalized secreted streptokinase activity reduction – plasminogen activation absorbance, OD405, dose response (AID 1914); type: functional, Streptococcus pyogenes M1 GAS;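 note: secreted streptokinase activity via plasminogen activation per viability signal from cell pellet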
# T4 sequence (P10520 whole entry): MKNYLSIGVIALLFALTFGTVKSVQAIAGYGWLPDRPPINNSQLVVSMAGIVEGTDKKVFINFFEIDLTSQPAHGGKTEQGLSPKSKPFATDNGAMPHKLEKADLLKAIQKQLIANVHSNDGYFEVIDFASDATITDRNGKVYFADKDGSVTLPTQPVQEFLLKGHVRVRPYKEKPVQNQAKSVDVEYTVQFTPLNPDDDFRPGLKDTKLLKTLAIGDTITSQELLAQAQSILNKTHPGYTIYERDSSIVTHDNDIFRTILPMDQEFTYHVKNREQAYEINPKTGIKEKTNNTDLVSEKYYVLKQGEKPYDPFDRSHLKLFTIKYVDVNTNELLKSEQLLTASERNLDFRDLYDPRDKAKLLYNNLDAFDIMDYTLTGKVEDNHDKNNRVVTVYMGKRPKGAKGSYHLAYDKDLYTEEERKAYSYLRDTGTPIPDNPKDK
# [14] = tested on: Streptococcus sp. 'group A'; experiment: Streptococcus pyogenes SK(-)GAS viability under kanamycin – luminescence, BacTiterGlo, confirmation, counter-screen for streptokinase expression inhibitor project, dose response (AID 1900); type: functional, organism-based
# [15] = tested on: Streptococcus; experiment: GAS UMAA2166 growth inhibition – luminescence, BacTiterGlo, counter-screen for streptokinase expression inhibitor project, dose response (AID 1915); type: functional, organism-based;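 note: potency for reduction of bacterial viability or growth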
# [16] = tested on: BJ; experiment: BJ-TERT fibroblast viability loss – cell-based, RAS-independent, luminescence, dose response (AID 1933); type: functional; details: Homo sapiens
# [17] = tested on: BJ; experiment: cells; type: functional, cell-based; details: Homo sapiens
# [18] = tested on: BJ; experiment: BJ-TERT-LT-ST fibroblast viability loss – cell-based, RAS-independent, luminescence, dose response (AID 1935); type: functional; details: Homo sapiens;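 note: BJ fibroblasts immortalized with TERT plus LT and ST oncogenes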
# [19] = biological target: Luciferin 4-monooxygenase (Photinus pyralis, UniProt P08659); experiment: inhibition of purified Photinus pyralis luciferase – biochemical, luminescence, dose response (AID 1891)
# Chain of Luciferin 4-monooxygenase (P08659 whole entry): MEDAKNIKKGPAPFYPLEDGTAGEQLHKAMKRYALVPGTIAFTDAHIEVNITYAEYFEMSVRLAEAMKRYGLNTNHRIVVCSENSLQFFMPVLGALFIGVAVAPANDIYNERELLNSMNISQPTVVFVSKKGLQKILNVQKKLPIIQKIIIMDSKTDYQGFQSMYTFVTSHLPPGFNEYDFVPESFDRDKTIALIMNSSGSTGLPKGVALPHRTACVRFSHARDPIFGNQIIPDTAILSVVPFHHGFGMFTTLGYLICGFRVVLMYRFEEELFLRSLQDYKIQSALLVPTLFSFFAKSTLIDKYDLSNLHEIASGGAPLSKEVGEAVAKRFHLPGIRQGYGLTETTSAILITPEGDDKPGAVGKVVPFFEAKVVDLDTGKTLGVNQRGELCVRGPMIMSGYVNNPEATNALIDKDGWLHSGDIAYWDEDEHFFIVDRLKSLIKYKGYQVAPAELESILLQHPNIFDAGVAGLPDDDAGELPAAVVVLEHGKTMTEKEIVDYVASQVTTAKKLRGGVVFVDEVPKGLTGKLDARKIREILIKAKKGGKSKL
# [20] = biological target: T5, Ubiquitin-conjugating enzyme E2 N (Homo sapiens, UniProt P61088); type: functional;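 note: Dose-response confirmation in a TR-FRET assay detecting UBC13-driven polyubiquitin chain formation, inhibition measured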
# T5 sequence (P61088 whole entry): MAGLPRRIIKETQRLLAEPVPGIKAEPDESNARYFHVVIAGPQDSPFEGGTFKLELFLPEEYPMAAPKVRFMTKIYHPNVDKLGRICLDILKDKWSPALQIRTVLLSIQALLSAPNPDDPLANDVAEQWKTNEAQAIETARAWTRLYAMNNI
# [21] = viability of HCT116 lacking mutant beta-catenin – cell-based, human colon tumor, dose response (AID 1045); type: functional;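 note: HCT116 colon tumor cells with beta catenin knocked out; cells exposed to compound for 60 hours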
# [22] = viability of PTEN-deleted HCT116 cells – cell-based, HCT116 PTEN knockout, dose response (AID 1047); type: functional;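 note: HCT116 colon tumor cells with PTEN knocked out; cells exposed to compound for 60 hours before readout; potency for loss of cell viability measured by luminescence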
smiles,measurement,setting,value
O=C(NN=Cc1sc(=O)[n-]c1-[n+]1ccc(-c2ccncc2)cc1)c1ccccc1O,EC50,[1],10.7 µM (active)
same,IC50,[2],33.3 µM (inactive)
same,EC50,[3],11.9 µM (active)
same,IC50,[4],42.7 µM (inactive)
O=C(c1ccc(NC(=O)C(c2ccccc2)c2ccccc2)cc1)c1ccc(C(=O)O)c(C(=O)O)c1,IC50,[5],57.6 µM (active)
c1ccc2[nH]c(SCc3cn4cccnc4n3)nc2c1,AC50,[6],0.194 µM (active)
COc1ccc(/C=C2/SC(=S)N(NS(=O)(=O)c3ccc(C)cc3)C2=O)cc1,IC50,[5],56.9 µM (active)
O=C(NC(=S)Nc1ccc(C(=O)N2CCOCC2)cc1)c1ccc([N+](=O)[O-])cc1,IC50,[2],> 66 µM (inactive)
same,IC50,[4],> 66 µM (inactive)
same,AC50,[7],1.41 µM (inconclusive)
same,AC50,[8],0.891 µM (inconclusive)
CCOC(=O)CNC(=O)CSc1nc(-c2cccc(C)c2)ns1,IC50,[2],> 66 µM (inactive)
same,IC50,[4],> 66 µM (inactive)
Nc1cc(O)nc(SCC(=O)Nc2cccc([N+](=O)[O-])c2)n1,AC50,[9],27.7 µM (active)
COC(=O)c1c(NC(=O)COc2ccc(Cl)cc2)sc2c1CC(C)(C)NC2(C)C,EC50,[10],10.4 µM (active)
same,EC50,[11],5.85 µM (active)
same,EC50,[12],1.54 µM (active)
same,EC50,[13],23.7 µM (active)
same,EC50,[14],11.6 µM (active)
same,EC50,[15],> 150 µM (not active)
same,EC50,[16],4.44 µM (active)
same,EC50,[17],11.7 µM (active)
same,EC50,[18],5.75 µM (inconclusive)
O=c1[nH]c2ccc(NC(=S)Nc3ccccc3Cl)cc2[nH]1,IC50,[2],> 66 µM (inactive)
same,IC50,[4],> 66 µM (inactive)
same,EC50,[19],> 112 µM (not active)
CN1CCN(c2ccc(S(=O)(=O)N3CCCCC3)cc2NC(=O)c2ccc3ccccc3c2)CC1,IC50,[20],> 20 µM (inactive)
same,EC50,[21],17.8 µM (active)
same,EC50,[22],16 µM (active)
CC1CN(C2CCCCC2)c2nc3c(c(=O)[nH]c(=O)n3C)n2C1 (configuration not stated),AC50,[6],1.81 µM (active)
CCC(c1nnnn1Cc1ccc(F)cc1)N(CCCO)Cc1cc2cc3c(cc2nc1O)OCO3 (configuration not stated),IC50,[2],> 66 µM (inactive)
same,IC50,[4],> 66 µM (inactive)
